We go through 32 molecules from patent US9815796B2 (Merck Sharp & Dohme Corp., priority 2013, dated 2017).

Where only a bound is given, the exact number is not on record here.

Sequence of human PDE2A1 (O00408 other isoform, or with tags, fused parts or gaps): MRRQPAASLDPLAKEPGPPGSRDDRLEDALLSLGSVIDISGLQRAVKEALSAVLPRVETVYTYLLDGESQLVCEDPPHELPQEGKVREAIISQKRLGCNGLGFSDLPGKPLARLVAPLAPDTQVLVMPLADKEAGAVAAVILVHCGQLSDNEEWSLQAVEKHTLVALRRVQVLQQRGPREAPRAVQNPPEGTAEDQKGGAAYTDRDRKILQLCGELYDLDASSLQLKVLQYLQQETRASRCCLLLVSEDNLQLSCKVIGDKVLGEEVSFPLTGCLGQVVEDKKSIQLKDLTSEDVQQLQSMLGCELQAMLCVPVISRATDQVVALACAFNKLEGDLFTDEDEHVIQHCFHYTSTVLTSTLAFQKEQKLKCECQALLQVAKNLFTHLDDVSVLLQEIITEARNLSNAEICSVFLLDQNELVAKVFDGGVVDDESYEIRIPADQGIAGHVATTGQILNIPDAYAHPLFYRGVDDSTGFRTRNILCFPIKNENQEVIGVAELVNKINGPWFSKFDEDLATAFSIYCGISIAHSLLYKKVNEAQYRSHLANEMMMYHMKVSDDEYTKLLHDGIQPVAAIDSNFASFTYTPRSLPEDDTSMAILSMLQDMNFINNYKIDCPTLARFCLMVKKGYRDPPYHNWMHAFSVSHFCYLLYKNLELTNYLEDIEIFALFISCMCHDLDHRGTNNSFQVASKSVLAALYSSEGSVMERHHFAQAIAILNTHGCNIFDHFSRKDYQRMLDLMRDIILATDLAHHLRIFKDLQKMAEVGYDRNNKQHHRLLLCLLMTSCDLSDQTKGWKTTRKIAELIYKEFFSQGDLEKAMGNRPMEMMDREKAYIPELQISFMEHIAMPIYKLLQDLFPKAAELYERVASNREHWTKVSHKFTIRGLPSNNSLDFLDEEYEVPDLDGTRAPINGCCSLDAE

This assay concerns the target human PDE2A1 (Homo sapiens (Human), UniProt O00408). The assay can be described thus: IMAP FP PDE selectivity panel, human PDE2A1. It counts as biochemical. The settings on record: Human PDE2, Lab B; read-out: Human PDE2 Ki (nM) - Lab B. The method in brief:
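GST-tagged human PDE2A1 expressed in insect cells, run at room temperature for 60 min with 50 nM FAM-cAMP containing 1000 nM cGMP, pH 7.2 Tris/MgCl2 buffer. IMAP fluorescence polarization read after binding step.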
For `CC(C)c1ccc([C@H](NC(=O)c2cc(=O)[nH]c(-c3ccccc3)n2)C2(C)CC2)cc1` [Example 547, N-{(R)-(1-methylcyclopropyl)[4-(1-methylethyl)phenyl]methyl}-6-oxo-2-phenyl-1,6-dihydropyrimidine-4-carboxamide], the Ki (as a rule, the dissociation constant of the complex between target and ligand, obtained from inhibition or displacement) worked out at 1.8 nM.
As for `Cc1nc(C(=O)NC(CO)(CO)c2ccc(C(F)(F)F)cc2)cc(=O)[nH]1` [Example 605, N-{2-hydroxy-1-(hydroxymethyl)-1-[4-(trifluoromethyl)phenyl]ethyl}-2-methyl-6-oxo-1,6-dihydropyrimidine-4-carboxamide], the figure is 102 nM; as for `CC(C)(C)[C@@H](NC(=O)c1cc(=O)[nH]c(-c2ncccn2)n1)c1ccc(C(F)(F)F)c(F)c1` [Example 556, N-{(1R)-1-[3-fluoro-4-(trifluoromethyl)phenyl]-2,2-dimethylpropyl}-6-oxo-1,6-dihydro-2,2′-bipyrimidine-4-carboxamide], 7.7 nM; as for `Cc1nc(C(=O)N[C@H](C)c2ccc(S(F)(F)(F)(F)F)cc2F)cc(=O)[nH]1` [Example 672, N-(1-(2-fluoro-4-(pentafluorothio)phenyl)ethyl)-2-methyl-6-oxo-1,6-dihydropyrimidine-4-carboxamide], more than 2960 nM.
As for `Cc1nc(C(=O)NC(C)(C)c2ccc3c(c2)OC(F)(F)O3)cc(=O)[nH]1` [Example 604, N-[1-(2,2-difluoro-1,3-benzodioxol-5-yl)-1-methylethyl]-2-methyl-6-oxo-1,6-dihydropyrimidine-4-carboxamide], the figure is 108 nM; as for `CC1([C@@H](NC(=O)c2cc(=O)[nH]c(-c3ccccc3)n2)c2ccc(S(F)(F)(F)(F)F)cc2)CC1` [Example 549, N-{(R)-(1-methylcyclopropyl)[4-(pentafluoro-λ^6-sulfanyl)phenyl]methyl}-6-oxo-2-phenyl-1,6-dihydropyrimidine-4-carboxamide], 4.5 nM.
Take `Cc1nc(C(=O)NC2(c3ccc(C(F)F)cc3)CC2)cc(=O)[nH]1` [Example 660, N-{1-[4-(difluoromethyl)phenyl]cyclopropyl}-2-methyl-6-oxo-1,6-dihydropyrimidine-4-carboxamide]: the Ki stood at 54 nM.
Consider `CCC(C)(NC(=O)c1cc(=O)[nH]c(C)n1)c1ccc(C(F)(F)F)cc1` (single isomer, unassigned) [Example 668, (S)- or (R)-2-methyl-N-{1-methyl-1-[4-(trifluoromethyl)phenyl]propyl}-6-oxo-1,6-dihydropyrimidine-4-carboxamide], for which the Ki was 67 nM.
As for `CC(C)(C)c1ccc([C@H](NC(=O)c2cc(=O)[nH]c(-c3ncccn3)n2)C2(C)CC2)cc1` [Example 563, N-[(R)-(4-tert-butylphenyl)(1-methylcyclopropyl)methyl]-6-oxo-1,6-dihydro-2,2′-bipyrimidine-4-carboxamide], the figure is 27 nM; as for `O=C(N[C@@H](c1ccc(OC(F)F)cc1)C1CC1)c1cc(=O)[nH]c(-c2ncccn2)n1` [Example 559, N-{(R)-cyclopropyl[4-(difluoromethoxy)phenyl]methyl}-6-oxo-1,6-dihydro-2,2′-bipyrimidine-4-carboxamide], 128 nM.
As for `Cc1nc(C(=O)N[C@@H](c2ccc(C3(C)CC3)cc2)C(C)C)cc(=O)[nH]1` [Example 532, 2-methyl-N-{(1R)-2-methyl-1-[4-(1-methylcyclopropyl)phenyl]propyl}-6-oxo-1,6-dihydropyrimidine-4-carboxamide], the figure is 16 nM.
As for `Cc1nc(C(=O)N[C@@H](c2ccc(C(F)(F)F)c(F)c2)C(C)(C)O)cc(=O)[nH]1` [Example 723, N-{(1S)-1-[3-fluoro-4-(trifluoromethyl)phenyl]-2-hydroxy-2-methylpropyl}-2-methyl-6-oxo-1,6-dihydropyrimidine-4-carboxamide], the figure is 8.6 nM.
For the molecule `CC1(c2ccc(C(NC(=O)c3cc(=O)[nH]c(C4CC4)n3)C(C)(C)C)cc2F)CC1` (single isomer, unassigned) [Example 712, (S)- or (R)-2-cyclopropyl-N-(1-(3-fluoro-4-(1-methylcyclopropyl)phenyl)-2,2-dimethylpropyl)-6-oxo-1,6-dihydropyrimidine-4-carboxamide], the inhibitory constant (Ki) worked out at 237 nM.
Consider `CC(C)c1ccc(C2(NC(=O)c3cc(=O)[nH]c(-c4ncccn4)n3)CC2)cc1` [Example 576, N-{1-[4-(1-methylethyl)phenyl]cyclopropyl}-6-oxo-1,6-dihydro-2,2′-bipyrimidine-4-carboxamide], for which the Ki stood at 32 nM.
As for `Cc1nc(C(=O)NC(C)(C)c2ccc(OC(F)(F)F)cc2F)cc(=O)[nH]1` [Example 597, N-{1-[2-fluoro-4-(trifluoromethoxy)phenyl]-1-methylethyl}-2-methyl-6-oxo-1,6-dihydropyrimidine-4-carboxamide], the figure is 137 nM; as for `C[C@@H](NC(=O)c1cc(=O)[nH]c(-c2ncco2)n1)c1ccc(C(F)(F)F)cc1` [Example 675, (R)-2-(oxazol-2-yl)-6-oxo-N-(1-(4-(trifluoromethyl)phenyl)ethyl)-1,6-dihydropyrimidine-4-carboxamide], 234 nM.
As for `Cc1nc(C(=O)N[C@@H](c2ccc3c(c2)OC(F)(F)O3)C(C)C)cc(=O)[nH]1` [Example 607, N-[(1R)-1-(2,2-difluoro-1,3-benzodioxol-5-yl)-2-methylpropyl]-2-methyl-6-oxo-1,6-dihydropyrimidine-4-carboxamide], the Ki was found to be 48 nM.
`CC[C@@H](NC(=O)c1cc(=O)[nH]c(C)n1)c1ccc(C(F)F)c(F)c1` [Example 653]: the Ki turned out to be 148 nM.
For the molecule `CC(C)(C)[C@@H](NC(=O)c1cc(=O)[nH]c(-c2ccccc2)n1)c1ccc(OC(F)(F)F)c(F)c1` [Example 542, N-{(1R)-1-[3-fluoro-4-(trifluoromethoxy)phenyl]-2,2-dimethylpropyl}-6-oxo-2-phenyl-1,6-dihydropyrimidine-4-carboxamide], the Ki was found to be 1.4 nM.
As for `CC(C)(NC(=O)c1cc(=O)[nH]c(-c2ncccn2)n1)c1ccc(OC(F)(F)F)cc1F` [Example 574, N-{1-[2-fluoro-4-(trifluoromethoxy)phenyl]-1-methylethyl}-6-oxo-1,6-dihydro-2,2′-bipyrimidine-4-carboxamide], the figure is 831 nM.
On to `CCC(C)(NC(=O)c1cc(=O)[nH]c(C)n1)c1ccc(C(F)(F)F)cc1F` (single isomer, unassigned) [Example 719, (R)- or (S)-N-(2-(2-fluoro-4-(trifluoromethyl)phenyl)butan-2-yl)-2-methyl-6-oxo-1,6-dihydropyrimidine-4-carboxamide], for which the inhibition constant (Ki) came out at 7.7 nM.
In the case of `Cc1nc(C(=O)N[C@](C)(CO)c2ccc(C(F)(F)F)cc2)cc(=O)[nH]1` [Example 636, N-{(1S)-2-hydroxy-1-methyl-1-[4-(trifluoromethyl)phenyl]ethyl}-2-methyl-6-oxo-1,6-dihydropyrimidine-4-carboxamide], the Ki was determined as 19 nM.
As for `O=C(N[C@@H](c1ccc(C2CC2)c(F)c1)C1CC1)c1cc(=O)[nH]c(-c2ncccn2)n1` [Example 581, N-[(R)-cyclopropyl(4-cyclopropyl-3-fluorophenyl)methyl]-6-oxo-1,6-dihydro-2,2′-bipyrimidine-4-carboxamide], the figure is 13 nM.
In the case of `CC(C)(C)[C@@H](NC(=O)c1cc(=O)[nH]c(-c2ccccc2)n1)c1ccc(C2CC2)cc1` [Example 536, N-[(1R)-1-(4-cyclopropylphenyl)-2,2-dimethylpropyl]-6-oxo-2-phenyl-1,6-dihydropyrimidine-4-carboxamide], the inhibition constant Ki is 0.51 nM.
As for `Cc1nc(C(=O)N[C@H](C)c2ccc(S(F)(F)(F)(F)F)cc2F)cc(=O)[nH]1` [Example 673, N-(1-(2-fluoro-4-(pentafluorothio)phenyl)ethyl)-2-methyl-6-oxo-1,6-dihydropyrimidine-4-carboxamide], the inhibitory constant (Ki) amounted to 32 nM.
As for `Cc1nc(C(=O)N[C@@H](c2ccc(C(F)F)cc2)C2(C)CC2)cc(=O)[nH]1` [Example 645, N-[(R)-[4-(difluoromethyl)phenyl](1-methylcyclopropyl)methyl]-2-methyl-6-oxo-1,6-dihydropyrimidine-4-carboxamide], the figure is 25 nM; as for `CC[C@@H](NC(=O)c1cc(=O)[nH]c(-c2ncccn2)n1)c1ccc2c(c1)OC(F)(F)O2` [Example 590, N-[(1R)-1-(2,2-difluoro-1,3-benzodioxol-5-yl)propyl]-6-oxo-1,6-dihydro-2,2′-bipyrimidine-4-carboxamide], 34 nM; as for `CCc1nc(C(=O)N[C@](C)(CO)c2ccc(C(F)(F)F)cc2)cc(=O)[nH]1` [Example 638, 2-ethyl-N-{(1S)-2-hydroxy-1-methyl-1-[4-(trifluoromethyl)phenyl]ethyl}-6-oxo-1,6-dihydropyrimidine-4-carboxamide], 12 nM.
As for `Cc1nc(C(=O)N[C@@H](c2ccc(C3CC3)cc2)C2(C)CC2)cc(=O)[nH]1` [Example 658, N-[(R)-(4-cyclopropylphenyl)(1-methylcyclopropyl)methyl]-2-methyl-6-oxo-1,6-dihydropyrimidine-4-carboxamide], the figure is 3.8 nM; as for `CC1(c2ccc(C(NC(=O)c3cc(=O)[nH]c(C4CC4)n3)C(C)(C)C)cc2F)CC1` (single isomer, unassigned) [Example 713, (R)- or (S)-2-cyclopropyl-N-(1-(3-fluoro-4-(1-methylcyclopropyl)phenyl)-2,2-dimethylpropyl)-6-oxo-1,6-dihydropyrimidine-4-carboxamide], 1.5 nM; as for `Cc1nc(C(=O)N[C@H](C)c2ccc3c(c2)OC(F)(F)O3)cc(=O)[nH]1` [Example 606, N-[(1R)-1-(2,2-difluoro-1,3-benzodioxol-5-yl)ethyl]-2-methyl-6-oxo-1,6-dihydropyrimidine-4-carboxamide], 237 nM.
Consider `Cc1nc(C(=O)N[C@@H](c2ccc(OC(F)F)c(F)c2)C2(C)CC2)cc(=O)[nH]1` [Example 631, N-[(R)-[4-(difluoromethoxy)-3-fluorophenyl](1-methylcyclopropyl)methyl]-2-methyl-6-oxo-1,6-dihydropyrimidine-4-carboxamide], for which the Ki was determined as 13 nM.
